Laboratory results taken from US6987004B1, “Genes integrating signal transduction pathways” (Massachusetts Institute of Technology, priority 1998, dated 2006).

Assays:
Format in all cases: cell-based
cAMP-GEFI = molecular target: T1, cAMP-GEFI (Rattus norvegicus, UniProt Q9Z1C8); experiment: Ratio of GTP to GDP bound to Rap1A in 293T cells expressing cAMP-GEFI; design: expressed in transfected cells; host or cells: 293T cells
T1 sequence (Q9Z1C8 43-926 limits assumed): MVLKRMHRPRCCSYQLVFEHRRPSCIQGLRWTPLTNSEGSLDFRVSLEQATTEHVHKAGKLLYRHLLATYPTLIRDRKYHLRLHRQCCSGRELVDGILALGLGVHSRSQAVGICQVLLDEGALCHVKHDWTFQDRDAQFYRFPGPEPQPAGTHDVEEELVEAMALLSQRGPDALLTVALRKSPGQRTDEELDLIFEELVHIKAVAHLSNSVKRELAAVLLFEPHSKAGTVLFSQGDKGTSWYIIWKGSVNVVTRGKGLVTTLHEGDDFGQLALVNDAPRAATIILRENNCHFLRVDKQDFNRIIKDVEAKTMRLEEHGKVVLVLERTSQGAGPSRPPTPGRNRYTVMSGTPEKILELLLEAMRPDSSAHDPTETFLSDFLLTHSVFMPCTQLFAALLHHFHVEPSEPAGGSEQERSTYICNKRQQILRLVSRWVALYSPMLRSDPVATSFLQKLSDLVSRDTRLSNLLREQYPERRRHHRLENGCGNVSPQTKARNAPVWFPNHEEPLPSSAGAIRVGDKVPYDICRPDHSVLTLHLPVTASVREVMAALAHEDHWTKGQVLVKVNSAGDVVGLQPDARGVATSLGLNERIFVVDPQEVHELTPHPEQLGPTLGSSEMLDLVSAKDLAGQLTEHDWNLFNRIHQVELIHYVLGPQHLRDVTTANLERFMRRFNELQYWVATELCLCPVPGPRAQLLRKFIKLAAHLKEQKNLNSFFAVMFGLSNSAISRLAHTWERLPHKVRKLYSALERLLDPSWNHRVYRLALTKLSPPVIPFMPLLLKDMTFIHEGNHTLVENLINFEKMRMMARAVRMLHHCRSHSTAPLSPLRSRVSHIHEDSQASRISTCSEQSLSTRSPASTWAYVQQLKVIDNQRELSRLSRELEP
Protocol: (§1) To determine the effect of CalDAG-GEFI on the Erk/MAP kinase cascade, Elk1 activation was measured in 293T cells transfected with CalDAG-GEFI or constitutively active H-Ras (RasV12), or both. 293T cells were transfected by SuperFect (Qiagen) as described in Gotoh, supra, with expression vectors for GST-tagged Ras family proteins and with those for various GEFs. Cells were labeled 24 hours after transfection with ^32Pi for 2 hr. In some experiments, cells were stimulated with either 10 μM A23187 or 1 μM phorbol-12-myristate-13-acetate (TPA) for 3 min. GST-tagged Ras family proteins were collected from cell lysates with glutathione Sepharose. Guanine nucleotides bound to Ras family proteins were separated by thin layer chromatography (TLC). Activation of Elk1 was examined by the PathDetect Elk1 transreporting system (Stratagene). 293T cells were transfected with pFR-Luc and pFA-Elk1 with various expression vectors, and light output was detected and analyzed by the use of LAS1000 film.
(§2) Forskolin/IBMX treatment given alone had no effect.
Thus, cAMP-GEFI has a direct effect on Rap1A rather than secondary effects mediated by other Ras-superfamily GEFs.

Rap1A = experiment: GTP-bound Rap1A in 293T cells in the absence of cAMP-GEFs; settings: treatment alone
Source text: as §2
cAMP-dependent activation of Rap1 has previously been ascribed to the phosphorylation of Rap1A by PKA, which raises its affinity to smgGDS, a GEF with broad substrate specificity. […] The activation of Rap1A induced by cAMP-GEFI and II is independent of the PKA pathway.

cAMP-GEFII = molecular target: T2, cAMP-GEFII (Homo sapiens, UniProt Q8WZA2); experiment: Ratio of GTP to GDP bound to Rap1A in 293T cells expressing cAMP-GEFII
T2 construct: expressed in transfected cells; host or cells: 293T cells
T2 sequence (Q8WZA2 whole entry): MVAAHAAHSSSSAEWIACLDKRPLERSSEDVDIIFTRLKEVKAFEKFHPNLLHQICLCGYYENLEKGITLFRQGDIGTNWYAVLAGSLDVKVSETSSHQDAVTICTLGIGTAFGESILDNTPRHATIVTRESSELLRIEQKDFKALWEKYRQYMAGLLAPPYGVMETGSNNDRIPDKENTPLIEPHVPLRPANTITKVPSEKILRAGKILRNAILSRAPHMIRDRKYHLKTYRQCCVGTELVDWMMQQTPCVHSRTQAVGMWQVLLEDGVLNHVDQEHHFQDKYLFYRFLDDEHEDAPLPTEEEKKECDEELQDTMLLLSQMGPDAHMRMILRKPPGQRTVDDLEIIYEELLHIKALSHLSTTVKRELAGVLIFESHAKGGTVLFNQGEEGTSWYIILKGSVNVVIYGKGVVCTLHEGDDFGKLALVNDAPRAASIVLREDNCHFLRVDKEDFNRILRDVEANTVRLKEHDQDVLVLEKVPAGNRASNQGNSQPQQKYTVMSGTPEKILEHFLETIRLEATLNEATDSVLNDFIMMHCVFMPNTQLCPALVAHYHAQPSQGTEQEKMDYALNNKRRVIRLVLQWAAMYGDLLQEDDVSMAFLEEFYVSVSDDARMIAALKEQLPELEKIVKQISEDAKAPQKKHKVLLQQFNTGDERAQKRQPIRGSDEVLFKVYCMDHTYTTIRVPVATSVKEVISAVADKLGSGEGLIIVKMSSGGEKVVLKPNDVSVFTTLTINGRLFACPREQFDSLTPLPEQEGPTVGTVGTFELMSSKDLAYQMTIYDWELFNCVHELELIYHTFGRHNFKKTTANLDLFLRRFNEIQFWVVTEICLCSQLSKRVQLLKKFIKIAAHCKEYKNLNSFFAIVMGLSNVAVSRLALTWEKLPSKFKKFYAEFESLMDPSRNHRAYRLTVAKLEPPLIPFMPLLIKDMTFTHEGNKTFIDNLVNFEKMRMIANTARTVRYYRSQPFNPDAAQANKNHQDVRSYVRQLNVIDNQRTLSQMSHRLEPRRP
Protocol: as §1, §2

SMILES | Activation of Rap1A (cAMP-GEFI; cAMP-GEFI transfectants) | Increase of GTP-bound Rap1A without cAMP-GEF (Rap1A) | Rap1A activation by cAMP-GEFI in the presence of the PKA inhibitor (cAMP-GEFI; 293T cells) | Rap1A activation by cAMP-GEFII in the presence of the PKA inhibitor (cAMP-GEFII)
Nc1ncnc2c1ncn2[C@@H]1O[C@@H]2COP(O)(=S)O[C@H]2[C@H]1O (stereo partly shown) [Sp-cAMPS] | activated Rap1A at levels similar to those induced by forskolin/IBMX | not detected | – | –
O=S(=O)(NCCNC/C=C/c1ccc(Br)cc1)c1cccc2cnccc12 [H-89] | – | – | could still activate Rap1A | could still activate Rap1A
